Test results as given in ChEMBL document CHEMBL5247629, “C-6 fluorinated casuarines as highly potent and selective amyloglucosidase inhibitors: Synthesis and structure-activity relationship study” (Eur J Med Chem, 2022).

Legend:
[1] = molecular target: Alpha-glucosidase (Saccharomyces cerevisiae S288c) (UniProt P53341+P38158+P07265); test: Inhibition of yeast alpha-glucosidase using p-nitrophenyl glycoside as substrate at 1000 uM by spectrometric method relative to control; type: protein assay
Oryza sativa = test: Inhibition of rice alpha-glucosidase using p-nitrophenyl glycoside as substrate at 1000 uM by spectrometric method relative to control
Rattus norvegicus = organism: Rattus norvegicus; test: Inhibition of rat intestinal maltase using maltose as substrate at 1000 uM at pH 6.8 by colorimetric method relative to control; type: tissue-based; conditions: Intestine
[2] = Inhibition of almond beta-glucosidase using p-nitrophenyl glycoside as substrate by spectrometric method; parameters: species or system Prunus dulcis
Bos taurus [3] = organism: Bos taurus; test: Inhibition of bovine liver beta-glucosidase using p-nitrophenyl glycoside as substrate at 1000 uM by spectrometric method relative to control; type: tissue-based
[4] = molecular target: T1, Alpha-mannosidase (Canavalia ensiformis) (UniProt C0HJB3); test: Inhibition of jack bean alpha-mannosidase using p-nitrophenyl glycoside as substrate at 1000 uM by spectrometric method relative to control
T1 sequence (whole entry): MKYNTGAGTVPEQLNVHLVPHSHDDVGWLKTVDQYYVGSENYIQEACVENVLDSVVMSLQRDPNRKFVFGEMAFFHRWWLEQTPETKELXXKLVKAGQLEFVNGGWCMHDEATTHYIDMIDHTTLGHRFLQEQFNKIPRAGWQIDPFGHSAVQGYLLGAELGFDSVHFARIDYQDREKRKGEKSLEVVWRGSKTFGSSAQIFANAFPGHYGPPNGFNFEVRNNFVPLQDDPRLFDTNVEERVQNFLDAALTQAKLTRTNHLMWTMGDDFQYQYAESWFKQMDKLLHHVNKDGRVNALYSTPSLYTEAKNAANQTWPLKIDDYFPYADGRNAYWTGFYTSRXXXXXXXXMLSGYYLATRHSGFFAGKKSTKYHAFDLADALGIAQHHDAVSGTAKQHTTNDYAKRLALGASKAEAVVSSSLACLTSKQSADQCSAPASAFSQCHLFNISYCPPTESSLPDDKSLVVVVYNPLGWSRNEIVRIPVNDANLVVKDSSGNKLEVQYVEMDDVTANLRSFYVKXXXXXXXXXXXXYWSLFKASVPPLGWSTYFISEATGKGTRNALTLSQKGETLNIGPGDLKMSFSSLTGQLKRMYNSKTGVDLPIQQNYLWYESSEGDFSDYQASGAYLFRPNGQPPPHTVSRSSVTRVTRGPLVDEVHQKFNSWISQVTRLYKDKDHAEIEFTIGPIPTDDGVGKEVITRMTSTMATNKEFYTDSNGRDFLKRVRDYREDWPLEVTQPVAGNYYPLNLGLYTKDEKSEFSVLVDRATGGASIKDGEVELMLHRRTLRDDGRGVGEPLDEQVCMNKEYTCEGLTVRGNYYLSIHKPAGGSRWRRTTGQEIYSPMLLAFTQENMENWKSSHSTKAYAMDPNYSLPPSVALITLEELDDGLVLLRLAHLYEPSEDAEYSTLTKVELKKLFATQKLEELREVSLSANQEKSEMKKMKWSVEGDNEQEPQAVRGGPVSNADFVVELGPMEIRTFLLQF

[5] = molecular target: Alpha-galactosidase (Coffea arabica) (UniProt Q42656); test: Inhibition of coffee bean alpha-galactosidase using p-nitrophenyl glycoside as substrate at 1000 uM by spectrometric method relative to control
Alpha-galactosidase (Coffea arabica), sequence (Q42656 16-378 limits assumed): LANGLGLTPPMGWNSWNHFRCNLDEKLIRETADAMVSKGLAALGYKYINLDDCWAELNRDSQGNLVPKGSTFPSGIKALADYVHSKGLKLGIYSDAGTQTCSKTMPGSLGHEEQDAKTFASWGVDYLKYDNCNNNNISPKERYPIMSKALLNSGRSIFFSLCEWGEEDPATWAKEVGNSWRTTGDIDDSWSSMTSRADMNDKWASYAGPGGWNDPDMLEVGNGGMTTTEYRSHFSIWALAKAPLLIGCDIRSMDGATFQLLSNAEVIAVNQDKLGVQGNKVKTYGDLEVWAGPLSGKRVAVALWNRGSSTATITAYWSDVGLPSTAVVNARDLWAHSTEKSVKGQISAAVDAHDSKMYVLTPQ

Bos taurus [6] = organism: Bos taurus; test: Inhibition of bovine liver beta-galactosidase using p-nitrophenyl glycoside as substrate at 1000 uM by spectrometric method relative to control; type: tissue-based
Helix pomatia = test: Inhibition of snail beta-mannosidase using p-nitrophenyl glycoside as substrate at 1000 uM by spectrometric method relative to control
[7] = molecular target: T2, Tissue alpha-L-fucosidase (Bos taurus) (UniProt Q2KIM0); test: Inhibition of bovine kidney alpha-L-fucosidase using p-nitrophenyl glycoside as substrate at 1000 uM by spectrometric method relative to control; type: tissue-based
T2 sequence (whole entry): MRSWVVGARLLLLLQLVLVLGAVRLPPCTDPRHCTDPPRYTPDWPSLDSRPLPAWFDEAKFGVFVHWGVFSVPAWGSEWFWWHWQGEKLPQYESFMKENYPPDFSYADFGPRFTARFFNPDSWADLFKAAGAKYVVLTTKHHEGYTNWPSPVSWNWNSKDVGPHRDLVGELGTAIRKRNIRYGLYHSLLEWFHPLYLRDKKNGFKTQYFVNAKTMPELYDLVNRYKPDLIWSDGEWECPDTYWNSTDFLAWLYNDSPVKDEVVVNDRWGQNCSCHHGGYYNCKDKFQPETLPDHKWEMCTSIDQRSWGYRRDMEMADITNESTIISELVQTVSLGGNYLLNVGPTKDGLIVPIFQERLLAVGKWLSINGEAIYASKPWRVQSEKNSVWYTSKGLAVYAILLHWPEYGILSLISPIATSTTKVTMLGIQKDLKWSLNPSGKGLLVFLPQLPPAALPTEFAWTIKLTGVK

Sus scrofa = organism: Sus scrofa; test: Inhibition of porcine kidney alpha/alpha-trehalase using p-nitrophenyl glycoside as substrate at 1000 uM by spectrometric method relative to control; type: tissue-based
[8] = Inhibition of Aspergillus niger amyloglucosidase using p-nitrophenyl glycoside as substrate by spectrometric method
[9] = Inhibition of Penicillium decumbens alpha-L-rhamnosidase using p-nitrophenyl glycoside as substrate by spectrometric method
Escherichia coli = test: Inhibition of Escherichia coli beta-glucuronidase using p-nitrophenyl glycoside as substrate at 1000 uM by spectrometric method relative to control
Bos taurus [10] = organism: Bos taurus; test: Inhibition of bovine liver beta-glucuronidase using p-nitrophenyl glycoside as substrate at 1000 uM by spectrometric method relative to control; type: tissue-based
[11] = Inhibition of rice alpha-glucosidase using p-nitrophenyl glycoside as substrate by spectrometric method; parameters: species or system Oryza sativa
[12] = Inhibition of rat intestinal maltase using maltose as substrate at pH 6.8 by colorimetric method; type: tissue-based, Intestine
[13] = Inhibition of bovine liver beta-glucosidase using p-nitrophenyl glycoside as substrate by spectrometric method; type: tissue-based, Bos taurus
[14] = Inhibition of bovine liver beta-galactosidase using p-nitrophenyl glycoside as substrate by spectrometric method; parameters: species or system Bos taurus
Penicillium decumbens = test: Inhibition of Penicillium decumbens alpha-L-rhamnosidase using p-nitrophenyl glycoside as substrate at 1000 uM by spectrometric method relative to control

Row | Structure (SMILES) | inhibition [1] | IC50 [2] | inhibition [4] | inhibition [5] | inhibition (Helix pomatia) | inhibition [7] | inhibition (Sus scrofa) | IC50 [8] | pIC50 [8] | inhibition (Escherichia coli) | inhibition (Bos taurus [10]) | other results
1 | OC[C@@H]1[C@@H](O)[C@H](O)[C@H]2[C@H](O)[C@H](F)CN21 | 12% | 395 µM | 5.8% | 1.7% | 5.9% | 7.6% | 15.6% | 0.14 µM | 6.854 | 4.3% | 11.6% | inhibition (Oryza sativa): 12.7%; inhibition (Rattus norvegicus): 33%; inhibition (Bos taurus [3]): 43.8%; inhibition (Bos taurus [6]): 47.6%; IC50 [9]: 488 µM
2 | OC[C@@H]1[C@@H](O)[C@H](O)[C@H]2[C@H](O)C(F)(F)CN21 | 24% | 266 µM | 6.3% | 1.2% | 0% | 6.8% | 5.9% | 2.1 µM | 5.678 | 2.6% | 15.9% | IC50 [11]: 48 µM; IC50 [12]: 167 µM; IC50 [13]: 747 µM; IC50 [14]: 390 µM; inhibition (Penicillium decumbens): 5.6%
